Assay results reported in the NIST ThermoML archive (doi:10.1016/j.tca.2016.03.013).
Values joined by “and” are separate entries in the source; they are usually repeats but may differ in a detail not shown here. Identical values can stand only once. Numbers after ± are expanded uncertainties.

What was measured:
[1] = for vapor or sublimation pressure: Liquid, Rate of evaporation; for Normal melting temperature: DTA
[2] = Molar enthalpy of transition or fusion; settings: DSC
[3] = molar heat capacity at constant pressure; settings: 101.33 kPa, Small sample (50 mg) DSC

c1ccc2c(c1)OCCOCCOCCOc1ccccc1OCCOCCOCCO2 [dibenzo-24-crown-8]
vapor or sublimation pressure ([1]; 545 K): 0.114 ± 0.037 kPa and 0.1131 ± 0.037 kPa and 0.1132 ± 0.037 kPa
vapor or sublimation pressure ([1]; 550 K): 0.1434 ± 0.046 kPa and 0.1414 ± 0.045 kPa and 0.1402 ± 0.045 kPa
vapor or sublimation pressure ([1]; 555 K): 0.1736 ± 0.056 kPa and 0.1757 ± 0.056 kPa and 0.1786 ± 0.057 kPa
vapor or sublimation pressure ([1]; 560 K): 0.2155 ± 0.069 kPa and 0.2204 ± 0.07 kPa and 0.2198 ± 0.07 kPa
vapor or sublimation pressure ([1]; 565 K): 0.2674 ± 0.086 kPa and 0.2714 ± 0.087 kPa and 0.2733 ± 0.087 kPa
vapor or sublimation pressure ([1]; 570 K): 0.3406 ± 0.11 kPa and 0.3372 ± 0.11 kPa and 0.3358 ± 0.11 kPa
vapor or sublimation pressure ([1]; 575 K): 0.4082 ± 0.13 kPa and 0.4133 ± 0.13 kPa and 0.4103 ± 0.13 kPa
vapor or sublimation pressure ([1]; 580 K): 0.4998 ± 0.16 kPa and 0.5082 ± 0.16 kPa and 0.5036 ± 0.16 kPa
vapor or sublimation pressure ([1]; 585 K): 0.607 ± 0.19 kPa and 0.6171 ± 0.2 kPa and 0.6145 ± 0.2 kPa
vapor or sublimation pressure ([1]; 590 K): 0.7381 ± 0.23 kPa and 0.7487 ± 0.24 kPa and 0.7461 ± 0.24 kPa
vapor or sublimation pressure ([1]; 595 K): 0.9028 ± 0.29 kPa and 0.897 ± 0.28 kPa and 0.9062 ± 0.29 kPa
Normal melting temperature ([1]; Crystal 1): 100.72 ± 0.39 °C
Triple point temperature ([1]; Crystal 2, DSC): 346.32 ± 0.77 K
Molar enthalpy of transition or fusion ([2]; Crystal 1): 53.7 ± 1.1 kJ/mol
Molar enthalpy of transition or fusion ([2]; Crystal 2): 0.98 ± 0.19 kJ/mol
molar heat capacity at constant pressure ([3]; 295 K, Crystal 2): 602 ± 60 J/K/mol
molar heat capacity at constant pressure ([3]; 298.15 K, Crystal 2): 611.3 ± 60 J/K/mol
molar heat capacity at constant pressure ([3]; 300 K, Crystal 2): 615.7 ± 61 J/K/mol
molar heat capacity at constant pressure ([3]; 305 K, Crystal 2): 627.3 ± 62 J/K/mol
molar heat capacity at constant pressure ([3]; 310 K, Crystal 2): 638.8 ± 63 J/K/mol
molar heat capacity at constant pressure ([3]; 315 K, Crystal 2): 648 ± 64 J/K/mol
molar heat capacity at constant pressure ([3]; 320 K, Crystal 2): 658.1 ± 65 J/K/mol
molar heat capacity at constant pressure ([3]; 325 K, Crystal 2): 668.9 ± 66 J/K/mol
molar heat capacity at constant pressure ([3]; 330 K, Crystal 2): 681.3 ± 68 J/K/mol
molar heat capacity at constant pressure ([3]; 335 K, Crystal 2): 692.8 ± 69 J/K/mol
molar heat capacity at constant pressure ([3]; 340 K, Crystal 2): 706.2 ± 70 J/K/mol
molar heat capacity at constant pressure ([3]; 355 K, Crystal 1): 755.6 ± 75 J/K/mol
molar heat capacity at constant pressure ([3]; 360 K, Crystal 1): 771.8 ± 76 J/K/mol
molar heat capacity at constant pressure ([3]; 365 K, Crystal 1): 802 ± 79 J/K/mol
molar heat capacity at constant pressure ([3]; 380 K, Liquid): 921.2 ± 84 J/K/mol
molar heat capacity at constant pressure ([3]; 385 K, Liquid): 922.5 ± 84 J/K/mol
molar heat capacity at constant pressure ([3]; 390 K, Liquid): 927.3 ± 84 J/K/mol
molar heat capacity at constant pressure ([3]; 395 K, Liquid): 930.4 ± 85 J/K/mol
molar heat capacity at constant pressure ([3]; 400 K, Liquid): 934.6 ± 85 J/K/mol
molar heat capacity at constant pressure ([3]; 405 K, Liquid): 938.7 ± 86 J/K/mol
molar heat capacity at constant pressure ([3]; 410 K, Liquid): 943.5 ± 86 J/K/mol
molar heat capacity at constant pressure ([3]; 415 K, Liquid): 947.5 ± 86 J/K/mol
molar heat capacity at constant pressure ([3]; 420 K, Liquid): 956.1 ± 87 J/K/mol
molar heat capacity at constant pressure ([3]; 425 K, Liquid): 962.6 ± 88 J/K/mol
molar heat capacity at constant pressure ([3]; 430 K, Liquid): 968.4 ± 88 J/K/mol
molar heat capacity at constant pressure ([3]; 435 K, Liquid): 974.4 ± 89 J/K/mol
molar heat capacity at constant pressure ([3]; 440 K, Liquid): 979 ± 89 J/K/mol
molar heat capacity at constant pressure ([3]; 445 K, Liquid): 985.6 ± 90 J/K/mol
molar heat capacity at constant pressure ([3]; 450 K, Liquid): 990.7 ± 90 J/K/mol
molar heat capacity at constant pressure ([3]; 455 K, Liquid): 996.8 ± 91 J/K/mol
molar heat capacity at constant pressure ([3]; 460 K, Liquid): 1003.2 ± 91 J/K/mol
molar heat capacity at constant pressure ([3]; 465 K, Liquid): 1009.9 ± 92 J/K/mol
molar heat capacity at constant pressure ([3]; 470 K, Liquid): 1016.5 ± 93 J/K/mol
molar heat capacity at constant pressure ([3]; 475 K, Liquid): 1020.4 ± 93 J/K/mol
molar heat capacity at constant pressure ([3]; 480 K, Liquid): 1025.3 ± 93 J/K/mol
molar heat capacity at constant pressure ([3]; 485 K, Liquid): 1030.6 ± 94 J/K/mol
molar heat capacity at constant pressure ([3]; 490 K, Liquid): 1036.3 ± 94 J/K/mol

c1ccc2cc3ccccc3cc2c1 [anthracene]
vapor or sublimation pressure ([1]; 494 K): 5.794 ± 1.8 kPa
vapor or sublimation pressure ([1]; 496 K): 6.242 ± 2 kPa
vapor or sublimation pressure ([1]; 498 K): 6.713 ± 2.1 kPa
vapor or sublimation pressure ([1]; 500 K): 7.174 ± 2.3 kPa
vapor or sublimation pressure ([1]; 502 K): 7.662 ± 2.4 kPa
vapor or sublimation pressure ([1]; 504 K): 8.173 ± 2.6 kPa
vapor or sublimation pressure ([1]; 506 K): 8.694 ± 2.7 kPa
vapor or sublimation pressure ([1]; 508 K): 9.227 ± 2.9 kPa
vapor or sublimation pressure ([1]; 510 K): 9.775 ± 3.1 kPa
vapor or sublimation pressure ([1]; 512 K): 10.31 ± 3.2 kPa

c1ccc2c(c1)ccc1ccccc12 [phenanthrene]
vapor or sublimation pressure ([1]; 384 K): 0.0567 ± 0.021 kPa
vapor or sublimation pressure ([1]; 388 K): 0.0795 ± 0.026 kPa
vapor or sublimation pressure ([1]; 392 K): 0.097 ± 0.031 kPa
vapor or sublimation pressure ([1]; 396 K): 0.1144 ± 0.037 kPa
vapor or sublimation pressure ([1]; 400 K): 0.146 ± 0.048 kPa
vapor or sublimation pressure ([1]; 404 K): 0.1785 ± 0.057 kPa
vapor or sublimation pressure ([1]; 408 K): 0.2069 ± 0.066 kPa
vapor or sublimation pressure ([1]; 412 K): 0.2439 ± 0.078 kPa
vapor or sublimation pressure ([1]; 416 K): 0.2926 ± 0.094 kPa
vapor or sublimation pressure ([1]; 420 K): 0.3468 ± 0.11 kPa

[Al+3].[Al+3].[O-2].[O-2].[O-2] [aluminum oxide (Al2O3)]
molar heat capacity at constant pressure ([3]; 298.15 K, Crystal): 78.8 ± 1.8 J/K/mol
molar heat capacity at constant pressure ([3]; 350 K, Crystal): 88.2 ± 2.5 J/K/mol
molar heat capacity at constant pressure ([3]; 450 K, Crystal): 101.33 ± 2.6 J/K/mol

c1ccc2c(c1)OCCOCCOc1ccccc1OCCOCCO2 [dibenzo[b,k][1,4,7,10,13,16]hexaoxacyclooctadecane]
vapor or sublimation pressure ([1]; 545 K): 0.5186 ± 0.17 kPa and 0.4924 ± 0.16 kPa and 0.5452 ± 0.17 kPa
vapor or sublimation pressure ([1]; 550 K): 0.6057 ± 0.19 kPa and 0.6363 ± 0.2 kPa and 0.6637 ± 0.21 kPa
vapor or sublimation pressure ([1]; 555 K): 0.7424 ± 0.24 kPa and 0.8052 ± 0.26 kPa and 0.7755 ± 0.25 kPa
vapor or sublimation pressure ([1]; 560 K): 0.9045 ± 0.29 kPa and 0.9751 ± 0.31 kPa and 0.9424 ± 0.3 kPa
vapor or sublimation pressure ([1]; 565 K): 1.095 ± 0.35 kPa and 1.169 ± 0.37 kPa and 1.137 ± 0.36 kPa
vapor or sublimation pressure ([1]; 570 K): 1.323 ± 0.42 kPa and 1.398 ± 0.44 kPa and 1.369 ± 0.43 kPa
vapor or sublimation pressure ([1]; 575 K): 1.589 ± 0.5 kPa and 1.663 ± 0.53 kPa and 1.638 ± 0.52 kPa
vapor or sublimation pressure ([1]; 580 K): 1.903 ± 0.6 kPa and 1.969 ± 0.62 kPa and 1.948 ± 0.62 kPa
vapor or sublimation pressure ([1]; 585 K): 2.258 ± 0.71 kPa and 2.321 ± 0.73 kPa and 2.316 ± 0.73 kPa
vapor or sublimation pressure ([1]; 590 K): 2.673 ± 0.84 kPa and 2.72 ± 0.86 kPa and 2.717 ± 0.85 kPa
vapor or sublimation pressure ([1]; 595 K): 3.164 ± 0.99 kPa and 3.142 ± 0.98 kPa and 3.16 ± 0.99 kPa
Normal melting temperature ([1]; Crystal): 162.50 ± 0.39 °C
Molar enthalpy of transition or fusion ([2]; Crystal): 56 ± 1.2 kJ/mol
molar heat capacity at constant pressure ([3]; 295 K, Crystal): 434.6 ± 44 J/K/mol
molar heat capacity at constant pressure ([3]; 298.15 K, Crystal): 439.7 ± 44 J/K/mol
molar heat capacity at constant pressure ([3]; 300 K, Crystal): 443.6 ± 45 J/K/mol
molar heat capacity at constant pressure ([3]; 305 K, Crystal): 449 ± 45 J/K/mol
molar heat capacity at constant pressure ([3]; 310 K, Crystal): 457.8 ± 46 J/K/mol
molar heat capacity at constant pressure ([3]; 315 K, Crystal): 462.9 ± 47 J/K/mol
molar heat capacity at constant pressure ([3]; 320 K, Crystal): 468.4 ± 47 J/K/mol
molar heat capacity at constant pressure ([3]; 325 K, Crystal): 474.6 ± 48 J/K/mol
molar heat capacity at constant pressure ([3]; 330 K, Crystal): 481.5 ± 49 J/K/mol
molar heat capacity at constant pressure ([3]; 335 K, Crystal): 487.5 ± 49 J/K/mol
molar heat capacity at constant pressure ([3]; 340 K, Crystal): 494.7 ± 50 J/K/mol
molar heat capacity at constant pressure ([3]; 345 K, Crystal): 500.5 ± 50 J/K/mol
molar heat capacity at constant pressure ([3]; 350 K, Crystal): 506.2 ± 51 J/K/mol
molar heat capacity at constant pressure ([3]; 355 K, Crystal): 513.3 ± 52 J/K/mol
molar heat capacity at constant pressure ([3]; 360 K, Crystal): 520.1 ± 52 J/K/mol
molar heat capacity at constant pressure ([3]; 365 K, Crystal): 527 ± 53 J/K/mol
molar heat capacity at constant pressure ([3]; 370 K, Crystal): 533.2 ± 54 J/K/mol
molar heat capacity at constant pressure ([3]; 375 K, Crystal): 540.2 ± 55 J/K/mol
molar heat capacity at constant pressure ([3]; 380 K, Crystal): 547.6 ± 55 J/K/mol
molar heat capacity at constant pressure ([3]; 385 K, Crystal): 555.2 ± 56 J/K/mol
molar heat capacity at constant pressure ([3]; 390 K, Crystal): 563.2 ± 57 J/K/mol
molar heat capacity at constant pressure ([3]; 395 K, Crystal): 571.3 ± 58 J/K/mol
molar heat capacity at constant pressure ([3]; 400 K, Crystal): 580.1 ± 59 J/K/mol
molar heat capacity at constant pressure ([3]; 405 K, Crystal): 588.7 ± 60 J/K/mol
molar heat capacity at constant pressure ([3]; 410 K, Crystal): 596.8 ± 60 J/K/mol
molar heat capacity at constant pressure ([3]; 415 K, Crystal): 604.8 ± 61 J/K/mol
molar heat capacity at constant pressure ([3]; 445 K, Liquid): 755.4 ± 60 J/K/mol
molar heat capacity at constant pressure ([3]; 450 K, Liquid): 761 ± 60 J/K/mol
molar heat capacity at constant pressure ([3]; 455 K, Liquid): 768.7 ± 61 J/K/mol
molar heat capacity at constant pressure ([3]; 460 K, Liquid): 772.5 ± 61 J/K/mol
molar heat capacity at constant pressure ([3]; 465 K, Liquid): 780.2 ± 62 J/K/mol
molar heat capacity at constant pressure ([3]; 470 K, Liquid): 787 ± 62 J/K/mol
molar heat capacity at constant pressure ([3]; 475 K, Liquid): 792 ± 63 J/K/mol
molar heat capacity at constant pressure ([3]; 480 K, Liquid): 799.7 ± 63 J/K/mol
molar heat capacity at constant pressure ([3]; 485 K, Liquid): 806 ± 64 J/K/mol
molar heat capacity at constant pressure ([3]; 490 K, Liquid): 812.6 ± 64 J/K/mol
